Values joined by “and” are separate entries in the source; they are usually repeats but may differ in a detail not shown here. Equal values may be shown once.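 96-well plates; 48 h exposure; 5 concentrations. Endpoints by linear interpolation between flanking doses. Not reached: highest tested concentration assigned. Abbreviation: GI50, concentration required for 50% inhibition of growth. Definition used: TGI = concentration required for complete inhibition of growth.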
Key:
Experiment in all cases: inhibition of tumour cell growth, NCI panel, 48 h
CAKI-1 renal = test system: CAKI-1 renal
EKVX NSCLC = test system: EKVX NSCLC
NCI-H23 lung = test system: NCI-H23 lung
OVCAR-3 ovarian = test system: OVCAR-3 ovarian
OVCAR-5 ovarian = test system: OVCAR-5 ovarian
RPMI-8226 leukemia = test system: RPMI-8226 leukemia
SF-268 CNS = test system: SF-268 CNS
SK-MEL-28 melanoma = test system: SK-MEL-28 melanoma
SNB-19 CNS = test system: SNB-19 CNS
SK-MEL-2 melanoma = test system: SK-MEL-2 melanoma

## OC1CC(O)O[C@H](c2ccccc2)C1 (some centres undefined)
CAKI-1 renal
  TGI: > 100 µM
EKVX NSCLC
  TGI: > 100 µM
NCI-H23 lung
  TGI: > 100 µM
OVCAR-3 ovarian
  TGI: > 100 µM
OVCAR-5 ovarian
  TGI: > 100 µM
RPMI-8226 leukemia
  TGI: > 100 µM
SF-268 CNS
  TGI: > 100 µM
SK-MEL-28 melanoma
  TGI: > 100 µM
SNB-19 CNS
  TGI: > 100 µM

## CC(=O)Oc1ccc2c(=O)c(C(C)=O)coc2c1
CAKI-1 renal
  TGI: > 100 µM
EKVX NSCLC
  TGI: > 100 µM
NCI-H23 lung
  TGI: > 100 µM
OVCAR-3 ovarian
  TGI: > 100 µM
OVCAR-5 ovarian
  TGI: > 100 µM
RPMI-8226 leukemia
  TGI: > 100 µM
SF-268 CNS
  TGI: > 100 µM
SK-MEL-2 melanoma
  TGI: > 100 µM
SK-MEL-28 melanoma
  TGI: > 100 µM
SNB-19 CNS
  TGI: > 100 µM

## CC(C)n1cc(-c2ccc3c(c2)N(C)CC3)c2c(NS(=O)(=O)c3ccn(C)n3)ccnc21
CAKI-1 renal
  GI50: 44.3 µM
  TGI: > 100 µM
EKVX NSCLC
  GI50: 28.2 µM
  TGI: > 100 µM
NCI-H23 lung
  GI50: 74.6 µM
  TGI: > 100 µM
OVCAR-3 ovarian
  GI50: 60.4 µM
  TGI: > 100 µM
OVCAR-5 ovarian
  GI50: > 100 µM
  TGI: > 100 µM
RPMI-8226 leukemia
  GI50: 54.2 µM
  TGI: > 100 µM
SF-268 CNS
  GI50: 62 µM
  TGI: > 100 µM
SK-MEL-2 melanoma
  GI50: 56.6 µM
  TGI: > 100 µM
SK-MEL-28 melanoma
  GI50: 34.5 µM
  TGI: > 100 µM
SNB-19 CNS
  GI50: > 100 µM
  TGI: > 100 µM

## Cc1nc2ccc(-n3ncc(C(=O)c4cc5ccccc5[nH]4)c3N)cc2[nH]1
CAKI-1 renal
  GI50: 7.16 µM
  TGI: > 100 µM
EKVX NSCLC
  GI50: 20.9 µM
  TGI: > 100 µM
NCI-H23 lung
  GI50: 15.9 µM
  TGI: > 100 µM
OVCAR-3 ovarian
  GI50: 11.2 µM
  TGI: > 100 µM
OVCAR-5 ovarian
  GI50: 16 µM
  TGI: > 100 µM
RPMI-8226 leukemia
  GI50: 8.1 µM
  TGI: 54.7 µM
SF-268 CNS
  GI50: 6.63 µM
  TGI: > 100 µM
SK-MEL-2 melanoma
  GI50: 25.9 µM
  TGI: 88.5 µM
SK-MEL-28 melanoma
  GI50: 8.78 µM
  TGI: > 100 µM
SNB-19 CNS
  GI50: 15.4 µM
  TGI: > 100 µM

## O=C(c1ccccc1)n1cc(/C=C/[N+](=O)[O-])c2ccccc21
CAKI-1 renal
  TGI: > 100 µM
EKVX NSCLC
  TGI: > 100 µM
NCI-H23 lung
  TGI: 37.6 µM
OVCAR-3 ovarian
  TGI: > 100 µM
OVCAR-5 ovarian
  TGI: > 100 µM
RPMI-8226 leukemia
  TGI: 39.9 µM
SF-268 CNS
  TGI: 52.3 µM
SK-MEL-2 melanoma
  TGI: 35.6 µM
SK-MEL-28 melanoma
  TGI: 33.6 µM
SNB-19 CNS
  TGI: 92.3 µM

## O=C(O)CN1C(=O)OC(c2ccccc2)C1=O (centres undefined)
CAKI-1 renal
  TGI: > 100 µM
EKVX NSCLC
  TGI: > 100 µM
NCI-H23 lung
  TGI: > 100 µM
OVCAR-3 ovarian
  TGI: > 100 µM
OVCAR-5 ovarian
  TGI: > 100 µM
RPMI-8226 leukemia
  TGI: > 100 µM
SF-268 CNS
  TGI: > 100 µM
SK-MEL-2 melanoma
  TGI: > 100 µM
SK-MEL-28 melanoma
  TGI: > 100 µM
SNB-19 CNS
  TGI: > 100 µM

## CCN1C(=O)/C(=c2\sc3n(c2=O)C2C(NN=3)N(CC)C(=O)N2CC)c2ccccc21 (centres undefined)
CAKI-1 renal
  GI50: 0.465 µM
  TGI: 32.2 µM
EKVX NSCLC
  GI50: 0.851 µM
  TGI: > 100 µM
NCI-H23 lung
  GI50: 0.808 µM
  TGI: 17.6 µM
OVCAR-3 ovarian
  GI50: 0.323 µM
  TGI: 3.32 µM
OVCAR-5 ovarian
  GI50: 2.02 µM
  TGI: > 100 µM
RPMI-8226 leukemia
  GI50: 0.366 µM
SF-268 CNS
  GI50: 2.57 µM
  TGI: > 100 µM
SK-MEL-2 melanoma
  GI50: 3.21 µM
  TGI: 44.2 µM
SK-MEL-28 melanoma
  GI50: 0.907 µM
  TGI: > 100 µM
SNB-19 CNS
  GI50: 0.75 µM
  TGI: 63 µM

## COc1ccc2c(c1)OCC1c3cc(OC)c4ccccc4c3OC21 (centres undefined)
CAKI-1 renal
  GI50: 5.05 µM
  TGI: 44.9 µM
EKVX NSCLC
  GI50: 25.1 µM
  TGI: > 100 µM
NCI-H23 lung
  GI50: 4.88 µM
  TGI: 43.2 µM
OVCAR-3 ovarian
  GI50: 1.5 µM
  TGI: 4.08 µM
OVCAR-5 ovarian
  GI50: 10.2 µM
  TGI: 57 µM
RPMI-8226 leukemia
  GI50: 10.6 µM
  TGI: > 100 µM
SF-268 CNS
  GI50: 12.1 µM
  TGI: > 100 µM
SK-MEL-2 melanoma
  GI50: 12.2 µM
  TGI: 77.7 µM
SK-MEL-28 melanoma
  GI50: 9.13 µM
  TGI: > 100 µM
SNB-19 CNS
  GI50: 23.9 µM
  TGI: > 100 µM

## COc1cccc(C(=O)NNc2nc(Cl)nc(N3CCN(C(c4ccccc4)c4ccccc4)CC3)n2)c1
CAKI-1 renal
  GI50: 1.87 µM
  TGI: 4.31 µM
EKVX NSCLC
  GI50: 5.76 µM
  TGI: 20 µM
NCI-H23 lung
  GI50: 2.7 µM
  TGI: 7.5 µM
OVCAR-3 ovarian
  GI50: 1.72 µM
  TGI: 3.28 µM
OVCAR-5 ovarian
  GI50: 16.3 µM
  TGI: 40 µM
RPMI-8226 leukemia
  GI50: > 100 µM
  TGI: > 100 µM
SF-268 CNS
  GI50: 2.07 µM
  TGI: 4.73 µM
SK-MEL-2 melanoma
  GI50: 2.14 µM
  TGI: 5.31 µM
SK-MEL-28 melanoma
  GI50: 2.21 µM
  TGI: 5.38 µM
SNB-19 CNS
  GI50: 1.88 µM
  TGI: 3.98 µM

## CC1(C)N=C(N)N=C(N)N1c1ccc(OCC(=O)Nc2ccc(S(=O)(=O)F)cc2Cl)c(Cl)c1
EKVX NSCLC
  GI50: > 100 µM
  TGI: > 100 µM
NCI-H23 lung
  GI50: 4.37 µM
  TGI: > 100 µM
OVCAR-3 ovarian
  GI50: 5.34 µM
  TGI: > 100 µM
OVCAR-5 ovarian
  GI50: > 100 µM
  TGI: > 100 µM
RPMI-8226 leukemia
  GI50: 64.9 µM
  TGI: > 100 µM
SF-268 CNS
  GI50: 3.79 µM
  TGI: > 100 µM
SK-MEL-2 melanoma
  GI50: > 100 µM
  TGI: > 100 µM
SK-MEL-28 melanoma
  GI50: 37.6 µM
  TGI: > 100 µM
SNB-19 CNS
  GI50: > 100 µM
  TGI: > 100 µM

## COC(=O)C1C(C(=O)O)C2(c3ccccc3)C(=O)C1(c1ccccc1)C(c1ccc(OC)cc1)=C2c1ccc(OC)cc1 (centres undefined)
CAKI-1 renal
  GI50: 20.9 µM
  TGI: 43.6 µM
EKVX NSCLC
  GI50: 18.6 µM
  TGI: 52.7 µM
NCI-H23 lung
  GI50: 17.5 µM
  TGI: 33.7 µM
OVCAR-3 ovarian
  GI50: 17.3 µM
  TGI: 41.2 µM
OVCAR-5 ovarian
  GI50: 20.8 µM
  TGI: 45.9 µM
RPMI-8226 leukemia
  GI50: 18.2 µM
  TGI: 48.5 µM
SF-268 CNS
  GI50: 25 µM
  TGI: 82.2 µM
SK-MEL-2 melanoma
  GI50: 20.5 µM
  TGI: 44 µM
SNB-19 CNS
  GI50: 22.4 µM
  TGI: 77.3 µM

## O=C(CCN1CCCCC1)c1csc2ccccc12
CAKI-1 renal
  TGI: > 100 µM
EKVX NSCLC
  TGI: > 100 µM
NCI-H23 lung
  TGI: > 100 µM
OVCAR-3 ovarian
  TGI: > 100 µM
OVCAR-5 ovarian
  TGI: > 100 µM
RPMI-8226 leukemia
  TGI: > 100 µM
SF-268 CNS
  TGI: > 100 µM
SK-MEL-2 melanoma
  TGI: > 100 µM
SK-MEL-28 melanoma
  TGI: > 100 µM
SNB-19 CNS
  TGI: > 100 µM

## CN1C(=O)C(N=Nc2ccc([N+](=O)[O-])cc2)SC1=S (centres undefined)
CAKI-1 renal
  GI50: 1.18 µM and 3.88 µM
  TGI: 7.8 µM and 50 µM
EKVX NSCLC
  GI50: 2.82 µM and 8.54 µM
  TGI: 28 µM and 96.9 µM
NCI-H23 lung
  GI50: 3.89 µM and 7.46 µM
  TGI: 77.1 µM and 76.9 µM
OVCAR-3 ovarian
  GI50: 2.7 µM and 10.9 µM
  TGI: 12.9 µM and 71.9 µM
OVCAR-5 ovarian
  GI50: 10.6 µM and 15.4 µM
  TGI: > 100 µM and 99.6 µM
RPMI-8226 leukemia
  GI50: 2.62 µM and 2.09 µM
  TGI: 52.4 µM and 18 µM
SF-268 CNS
  GI50: 6.1 µM and 17.3 µM
  TGI: 99.5 µM and > 100 µM
SK-MEL-2 melanoma
  GI50: 8.98 µM and 5.29 µM
  TGI: 37.8 µM and 42.5 µM
SK-MEL-28 melanoma
  GI50: 11.6 µM and 27.2 µM
  TGI: > 100 µM
SNB-19 CNS
  GI50: 6.62 µM and 11 µM
  TGI: > 100 µM

## COc1ccc(C2=C(c3ccccc3)C(=O)N3CCCC3C2)cc1 (centres undefined)
CAKI-1 renal
  GI50: 8.05 µM
  TGI: > 100 µM
EKVX NSCLC
  GI50: > 82.9 µM
  TGI: > 100 µM
NCI-H23 lung
  GI50: > 32.3 µM
  TGI: > 100 µM
OVCAR-3 ovarian
  GI50: 57 µM
  TGI: > 100 µM
OVCAR-5 ovarian
  GI50: > 100 µM
  TGI: > 100 µM
RPMI-8226 leukemia
  GI50: 0.318 µM
  TGI: > 100 µM
SF-268 CNS
  GI50: 26 µM
  TGI: > 100 µM
SK-MEL-2 melanoma
  GI50: 23.8 µM
  TGI: > 100 µM
SK-MEL-28 melanoma
  GI50: > 62.5 µM
  TGI: > 100 µM
SNB-19 CNS
  GI50: 8.01 µM
  TGI: > 100 µM

From PubChem BioAssay (NCI)
